Results on eight compounds are retold here after patent publication US11338009B2 (The Children's Hospital of Philadelphia, priority 2017, dated 2022).

Like-named read-outs stand apart in the source and are kept apart here.

For one data set, the target named is T1, hCC L68Q variant (Homo sapiens, UniProt P01034, L94Q).
T1 construct: Dashed line represents the N-terminal signal peptide subject to proteolysis; expressed in transfected cells
T1 sequence (P01034 27-146 L94Q): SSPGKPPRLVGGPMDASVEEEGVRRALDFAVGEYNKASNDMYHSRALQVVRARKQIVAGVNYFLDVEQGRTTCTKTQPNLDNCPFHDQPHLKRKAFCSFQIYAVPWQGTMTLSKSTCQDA
Put plainly: Incubation of supernatants and cellular extracts of hCC-expressing HEK-293T cells with reducing agents, non-reducing SDS-PAGE/Western blot for cystatin C. Particulars: for concentration at which equivalent loss of high molecular signal was observed: supernatants or cell extracts treated in vitro (FIG. 6); for ability to disrupt high molecular weight complexes of L68Q Cyst-C: supernatants or cell extracts treated in vitro, 1 h at 37 C (FIG. 6); for high molecular weight complexes of L68Q Cyst-C: supernatants and cell extracts, 1 h at 37° C. (FIG. 5); for oligomerization of hCC WT and L68Q variant in presence of reducing agent: DTT 50 mM or β-mercaptoethanol 5% in sample buffer, lysates and supernatants; for inhibition at 3000 µM / HMW of secreted hCC L68Q (quantitation): 3 mM; for HMW of secreted hCC L68Q (quantitation) / oligomerization/dimerization levels of secreted hCC L68Q variant in vitro: supernatants, 37° C. for 60 min. Type of data set: biochemical. On the procedure: A plasmid containing a cDNA of CST3 was obtained from Dharmacon (Lafayette, Colo.). The full length coding sequence was amplified with a c-terminal Myc tag by PCR using the forward primer […] All sequences were confirmed by Sanger sequencing. […] After transfection cells were incubated with fresh medium containing puromycin (1 μg/ml) for 3 weeks. After selection, stable clones of each transfectant were generated by limiting dilution.
After clearing the cell lysates by centrifugation (10 minutes, 21,000×g, 4° C.), the supernatants were collected and used for Western blotting. Sample buffer containing SDS, glycerol, Tris-HCl pH 6.8, and bromophenol blue was added to each sample to the following final concentrations: 2% SDS, 10% glycerol, 50 mM Tris-HCl, 0.02% bromophenol blue. In samples that were reduced, either DTT (50 mM final concentration) or β-mercaptoethanol (5% final concentration) were added. […] Proteins were transferred to PVDF membranes (Millipore, Billerica, Mass.) and blotted with anti-hCystatin C, and developed by enhanced chemiluminescence (ECL; Thermo Fisher Scientific). ECL films were scanned, and densities of bands were determined using the gel analysis features of Fiji.^59
(§1) The means and standard deviations of data were calculated. One-sided T-test tests were used to determine the level of significance with respect to the untreated samples, with p<0.05 being considered statistically significant.
(In general: Immunoblotting shows a protein as a band on a membrane.)

The next data set concerns the target T2, secreted hCC L68Q (Homo sapiens, UniProt P01034, L94Q).
T2 construct: Dashed line represents the N-terminal signal peptide subject to proteolysis; expressed in transfected cells
T2 sequence (P01034 27-146 L94Q): T1 sequence (P01034 27-146 L94Q)
Put plainly: Treatment of live HEK-293T cells expressing hCC WT or L68Q with compounds, Western blot of supernatants or lysates. Particulars: for presence of HMW and LMW of secreted hCC L68Q / reduction of HMW and LMW of secreted hCC L68Q: 10 mM; for presence of HMW and LMW of secreted hCC L68Q: 24 h and 48 h time points; for reduction of HMW and LMW of secreted hCC L68Q: 72 h; for effect on oligomerization of secreted hCC L68Q: lower doses (below 10 mM). Type of data set: cell-based. On the procedure:
HEK-293T cells expressing hCC WT or the L68Q variant were washed twice with ice-cold phosphate-buffered saline (PBS) and lysed on ice using a freshly prepared ice-cold cell lysis buffer containing 50 mM Tris-HCl, pH 7.4, 100 mM NaCl, 50 mM β-glycerophosphate, 10% glycerol (w/v), 1% NP-40 (w/v), 1 mM EDTA, 2 mM NaVO4, and a complete, EDTA-free, protein inhibitor cocktail (Roche Applied Science, Mannheim Germany) at 20 μl per mL of lysis buffer. After clearing the cell lysates by centrifugation (10 minutes, 21,000×g, 4° C.), the supernatants were collected and used for Western blotting. Sample buffer containing SDS, glycerol, Tris-HCl pH 6.8, and bromophenol blue was added to each sample to the following final concentrations: 2% SDS, 10% glycerol, 50 mM Tris-HCl, 0.02% bromophenol blue. In samples that were reduced, either DTT (50 mM final concentration) or β-mercaptoethanol (5% final concentration) were added. Equal volumes of lysate or supernatant samples were loaded on NuPAGE 4-12% Bis-Tris gels (Thermo Fisher Scientific, Waltham Mass.) without heating/boiling. Proteins were transferred to PVDF membranes (Millipore, Billerica, Mass.) and blotted with anti-hCystatin C, and developed by enhanced chemiluminescence (ECL; Thermo Fisher Scientific). ECL films were scanned, and densities of bands were determined using the gel analysis features of Fiji.^59
(§2) HEK-239T cells were plated on 6-well plates and cultured for 2 days, at which point reduced glutathione (GSH) (Sigma, St. Louis, Mo.) or N-acetylcystein (NAC) (Sigma) were added to the indicated concentrations. Cells were incubated with compounds for 72 hours, and 100 μl samples of supernatants were removed at 24, 48, and 72 hours. Supernatants were cleared by centrifugation (10 minutes, 21,000×g, 4° C.). Sample buffer containing SDS, glycerol, Tris-HCl pH 6.8, and bromophenol blue was added to each sample to the following final concentrations: 2% SDS, 10% glycerol, 50 mM Tris-HCl, 0.02% bromophenol blue. When indicated, cells were washed with PBS and lysed and cystatin C levels were determined by means of Western blot analysis.
as §1

Another data set relates to HEK-293T cells. Put plainly: Viability and proliferation of hCC-expressing HEK-293T cells in the presence of reducing agents. In kind it is cell-based, human. On the procedure: as §2
Data set [1] concerns the target T3, amyloid-cystatin protein complex aggregates in the skin (Homo sapiens, UniProt P01034, L94Q).
T3 construct: from tissue; host or cells: human skin biopsies from HCCAA patients
T3 sequence (P01034 27-146 L94Q): T1 sequence (P01034 27-146 L94Q)
Put plainly: Cystatin C immunostaining of skin biopsies from HCCAA patients (hCC L68Q carriers) on NAC therapy. Type of data set: in vivo. The text has this: Three 4 mm skin biopsies from the back were taken from each of the three studied individuals. The skin biopsies were formalin-fixed and paraffin-embedded. They were cut into 3 μm sections for immunohistochemistry and immunostained with rabbit polyclonal cystatin C antibody (Sigma, HPA013143) using the EnVision Detection System as previously described.^22 hCC immunoreactivity in the carriers skin biopsies was quantified by semi-automated image analysis using the ImageJ software as previously described.^22 Bright-field images of each section from the carriers were captured using a ×20/0.3 NA objective. RGB color images of the sections were imported to ImageJ. On each image, a rectangular 2000×2000 pixels region of interest (ROI) was defined. Subsequent processing yielding the % area coverage of hCC immunoreactivity within each ROI was performed as previously described^22. […] The second biopsy was taken immediately prior to the family-wide initiation of NAC treatment (600 mg of NAC 3× per day for 6 months). The third biopsy was taken following 6 months of 600 mg 3× per day of NAC therapy.
The proband received 400 mg NAC 4× per day for 9 months followed by 600 mg 3× per day for 6 months. The parent received only the 600 mg 3× per day for 6 months course. The proband never missed a dose; the parent did miss the middle dose 2-3 times per week.

A further data set deals with T4, Cyst-C L68Q (Homo sapiens, UniProt P01034, L94Q).
T4 construct: from tissue; host or cells: plasma and brain extracts of Cyst-C L68Q transgenic mice (from Levy, New York University)
T4 sequence (P01034 27-146 L94Q): T1 sequence (P01034 27-146 L94Q)
Put plainly: Incubation of plasma or brain extracts of Cyst-C L68Q transgenic mice with NAC, non-reducing Western blot. In kind it is biochemical. Particulars: 1 h at 37° C. On the procedure:
FIG. 7. High molecular weight complexes of Cyst-C L68Q can be detected in transgenic mice. Short incubation of NAC impairs oligomerization of Cyst-C L68Q on blood and brain extracts. Plasma or brain extracts were incubated in presence of NAC during 1 h at 37° C. with indicated concentrations. Samples were mixed with 2% SDS without reducing agents prior to electrophoresis, and proteins levels were detected by biotinylated anti-cystatin C antibody followed by streptavidin-HRP.
Additional results have been generated from transgenic mice that were obtained from our collaborator Eufrat Levy at New York University. These mice have been transformed with a human genomic DNA which contains the coding sequence of Cyst-C, […] non-coding portions of the gene which may impact expression levels. […] Western blots from the mouse tissue extracts are not as clean as blots from the cell system, as the antibody we use to detect was raised in a mouse. […] Although there are several non-specific high molecular weight bands observed in the non-transgenic samples, a clear high molecular weight “smear” is seen in the transgenic animals, consistent with what we observe in supernatant from the cell culture system.

For data set [2] the following is noted: human, in vivo.

Consider `COC(=O)[C@H](CS)NC(C)=O` [NAC-methyl ester, N-acetylcysteine methyl ester], for which, on hCC L68Q variant, the “concentration at which equivalent loss of high molecular signal was observed” value (“concentration at which equivalent loss” below) is 1 mM and the “ability to disrupt high molecular weight complexes of L68Q Cyst-C” value was “retain the ability to disrupt”.
As for `CC(=O)N[C@@H](CO)C(=O)O` [NAS, n-acetyl-serine], the “high molecular weight complexes of L68Q Cyst-C” value at hCC L68Q variant is listed as “does not affect”.
On to `OCCS` [b-mercaptoethanol], for which the “oligomerization of hCC WT and L68Q variant in presence of reducing agent” value on hCC L68Q variant was “completely abolished”.
Regarding `CC(=O)N[C@@H](CS)C(N)=O`, at hCC L68Q variant, the “concentration at which equivalent loss” value is given as 1 mM and the “ability to disrupt high molecular weight complexes of L68Q Cyst-C” value is reported as “retain the ability to disrupt”.
For the compound `N[C@@H](CCC(=O)N[C@@H](CS)C(=O)NCC(=O)O)C(=O)O` [GSH, glutathione], at hCC L68Q variant (cellular extract, 37° C., read-out: inhibition of the HMW on the intracellular fraction of the L68Q hCC variant (densitometry)), the inhibition at 3000 µM was approximately 50%. The inhibition at 3000 µM on hCC L68Q variant (supernatant, 37° C., read-out: inhibition of the HMW in the secreted fraction of the L68Q hCC variant (densitometry)) was approximately 90%. In addition, on hCC L68Q variant, the “HMW of secreted hCC L68Q (quantitation)” value was “almost complete ablation” and the “high molecular weight complexes of L68Q Cyst-C” value is on record as “significant reduction”. Moreover, the “amount of dimer and/or HMW oligomer in secreted and intracellular fraction of hCC WT or L68Q variant” value on hCC L68Q variant (3 or 10 mM, 37° C.) is “severely reduced”. Moreover, at hCC L68Q variant (3 or 10 mM), the “oligomerization/dimerization levels of secreted hCC L68Q variant in vitro” value is on record as “severely reduces”. Moreover, on secreted hCC L68Q, the “presence of HMW and LMW of secreted hCC L68Q” value is given as “completely abolished”; the “reduction of HMW and LMW of secreted hCC L68Q” value is “appreciable but incomplete reduction”. Moreover, on secreted hCC L68Q (24 h and 48 h), the “effect on oligomerization of secreted hCC L68Q” value (from here on “effect on oligomerization”) is listed as “only incompletely effective”. In addition, on secreted hCC L68Q (after 72 h), the “effect on oligomerization” value is on record as “no significant effect”. Moreover, the “cell viability for the duration of the experiment” value in the data set with HEK-293T cells (all concentrations (up to 10 mM), 72 hours) is reported as “viable”. In addition, the “proliferation of the cells” value in the data set with HEK-293T cells (highest 10 mM concentration (data not shown)) was “slightly impacted”.
GSSH: the “high molecular weight complexes of L68Q Cyst-C” value on hCC L68Q variant was “does not affect”.
`O[C@@H](CS)[C@@H](O)CS` [DTT]: the “oligomerization of hCC WT and L68Q variant in presence of reducing agent” value at hCC L68Q variant was “completely abolished”.
In the case of `CC(=O)N[C@@H](CS)C(=O)O` [NAC, N-acetyl cysteine], in data set [1] (parent), 600 mg 3× per day for 6 months, middle dose missed 2-3 times per week), the “reduction in staining of skin biopsy” value was found to be 50%. Further, the “progression of amyloid-cystatin stain intensity between skin biopsy #1 and #2” value in data set [1] (proband, on NAC for about 9 months, stopped a few months prior to second biopsy) is listed as “had not progressed in any significant way”. Besides, the “reduction in staining of skin biopsy” value in data set [1] (sibling, lower doses of NAC) is reported as “less obvious”. On Cyst-C L68Q, the Cyst-C monomer entry was “causes the appearance of monomer” and the “high molecular weight smear of transgenic human Cyst-C” value is recorded as “reduces this smear”. Besides, on hCC L68Q variant, the “HMW of secreted hCC L68Q (quantitation)” value is on record as “almost complete ablation”, the “high molecular weight complexes of L68Q Cyst-C” value is “significant reduction” and the “concentration at which equivalent loss” value was found to be 10 mM. Also, the “oligomerization/dimerization levels of secreted hCC L68Q variant in vitro” value on hCC L68Q variant (3 or 10 mM) is “severely reduces”. For the same compound, in data set [2], the “tolerability of oral therapy” value is “well tolerated and without adverse events”. In addition, at secreted hCC L68Q, the “presence of HMW and LMW of secreted hCC L68Q” value was “completely abolished”; the “reduction of HMW and LMW of secreted hCC L68Q” value was “appreciable but incomplete reduction”. In addition, the “dimerization status of the intracellular levels of L68Q hCC” value at secreted hCC L68Q (extracellular treatment of cells (data not shown)) is recorded as “does not appear to impact”. The “effect on oligomerization” value on secreted hCC L68Q (24 h and 48 h) is on record as “only incompletely effective”. Also, the “effect on oligomerization” value at secreted hCC L68Q (after 72 h) was “no significant effect”.

The term inhibition denotes the percentage by which the read-out fell short of the control.
